Source: BindingDB's records for doi:10.1021/acs.jmedchem.1c00926 (Biogen, 2022)

Test: Inhibition of CD69 in human whole blood preincubated for 30 mins followed by anti-human IgD stimulation and measured after 18 to 22 hrs by flow cytometry

SMILES | IC50 [nM]
Cn1cc(Nc2nccc(-c3ccc4c(c3)CCCCC4NC(=O)c3cnc(C(C)(C)C)nc3)n2)cn1 (centres undefined) | > 10000
Cn1cc(Nc2nccc(-c3ccc4c(c3)CCCCC4NC(=O)c3nnc(C(C)(C)C)o3)n2)cn1 (centres undefined) [5-(tert-butyl)-N-(2-(2-((1-methyl-1H-pyrazol-4-yl)amino)pyrimidin-4-yl)-6,7,8,9-tetrahydro-5H-benzo[7]annulen-5-yl)-1,3,4-oxadiazole-2-carboxamide] | 390
CC(C)OC1CN(C(=O)N[C@@H]2CCCCc3cc(-c4ccnc(Nc5cnn(C)c5)n4)ccc32)C1 | 400
Cn1cc(Nc2nccc(-c3ccc4c(c3)CCCCC4NC(=O)c3cn(C(C)(C)C)nn3)n2)cn1 (centres undefined) [1-(tert-butyl)-N-(2-(2-((1-methyl-1H-pyrazol-4-yl)amino)pyrimidin-4-yl)-6,7,8,9-tetrahydro-5H-benzo[7]annulen-5-yl)-1H-1,2,3-triazole-4-carboxamide] | 860
COCCN1CC[C@@H](NC(=O)c2cn(C(C)(C)C)nn2)c2ccc(-c3ccnc(Nc4cnn(C)c4)n3)cc2C1 [(R)-1-(tert-butyl)-N-(2-(2-methoxyethyl)-8-(2-((1-methyl-1H-pyrazol-4-yl)amino)pyrimidin-4-yl)-2,3,4,5-tetrahydro-1H-benzo[c]azepin-5-yl)-1H-1,2,3-triazole-4-carboxamide ] | 800
Cn1cc(Nc2nccc(-c3ccc4c(c3)CNCC[C@H]4NC(=O)c3cn(C(C)(C)C)nn3)n2)cn1 | 1600
Cn1cc(Nc2nccc(-c3ccc4c(c3)CCNC[C@H]4NC(=O)c3cn(C(C)(C)C)nn3)n2)cn1 | 400
Cc1c(NC(=O)c2cc3c(s2)CCCC3)cccc1-c1cn(C)c(=O)c(Nc2ccc(C3CN(C)CC(=O)N3C)cc2)n1 (centres undefined) | 1200
CN1CCc2cc(-c3ccnc(Nc4cnn(C)c4)n3)ccc2[C@H](NC(=O)c2cn(C(C)(C)C)nn2)C1 | 700

Stronger by IC50, values ahead:

IC50 [nM] | SMILES
330 | Cn1cc(Nc2nccc(-c3ccc4c(c3)CCCC[C@H]4NC(=O)c3nnc(C(C)(C)C)o3)n2)cn1 [(R)-5-(tert-butyl)-N-(2-(2-((1-methyl-1H-pyrazol-4-yl)amino)pyrimidin-4-yl)-6,7,8,9-tetrahydro-5H-benzo[7]annulen-5-yl)-1,3,4-oxadiazole-2-carboxamide ]
220 | Cn1cc(Nc2nccc(-c3ccc4c(c3)CCCCC4NC(=O)c3nc(C(C)(C)C)no3)n2)cn1 (centres undefined) [3-(tert-butyl)-N-(2-(2-((1-methyl-1H-pyrazol-4-yl)amino)pyrimidin-4-yl)-6,7,8,9-tetrahydro-5H-benzo[7]annulen-5-yl)-1,2,4-oxadiazole-5-carboxamide ]
104 | Cn1cc(Nc2nccc(-c3ccc4c(c3)CCCC[C@H]4NC(=O)c3cn(C(C)(C)C)nn3)n2)cn1
59 | Cn1cc(Nc2nccc(-c3ccc4c(c3)CCCC[C@H]4NC(=O)c3nc(C(C)(C)C)no3)n2)cn1
40 | Cn1cc(Nc2nccc(-c3ccc4c(c3)CCCCC4NC(=O)N3CC[C@@H](C(C)(C)C)C3)n2)cn1 (some centres undefined)
